ChEMBL document CHEMBL1125350, “L-thymidine is phosphorylated by herpes simplex virus type 1 thymidine kinase and inhibits viral growth” (J Med Chem, 1992)

System: Thymidine kinase (Human herpesvirus 1)
Conditions: Human alphaherpesvirus 1

Compound: Nc1ncnc2c1ncn2[C@H]1C[C@H](O)[C@@H](CO)O1
- ID50: > 1 mM
